# Results published in PubChem BioAssay AID2060892 (Molecular Pharmacology Branch, DTP, NCI, 2025).
# Test system: HOP-62 complex spheroids with HUVEC/MSC, viability
# Test: Anticancer human tumor HOP-62 cell line growth inhibition [RAS];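 further: spheroids exposed to agents for seven days before readout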;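 on viability, T/C: 100% = DMSO vehicle control viability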
# Conditions: for IC50: curve of first compound; for viability, T/C: stronger effect = lower value
# Procedure, shortened: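 Agents were tested in combination matrices in half-log decrements from a top concentration at or near clinical Cmax (10 microM if undetermined). Targets were multi-cell spheroids of tumour lines plus HUVEC and MSC stromal cells.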
compound,measurement,setting,value
CCc1c2c(nc3ccc(O)cc13)-c1cc3c(c(=O)n1C2)COC(=O)[C@]3(O)CC + CCn1c(-c2cc(N3CCN(C)CC3)cnc2C(C)OC)c2c3cc(ccc31)-c1csc(n1)CC(NC(=O)C1CC1C)C(=O)N1CCCC(N1)C(=O)OCC(C)(C)C2,IC50,second compound 0.000949 µM,1.77 nM
same,IC50,second compound 0.003 µM,1.54 nM
same,IC50,second compound 0.00949 µM,1.14 nM
same,IC50,second compound 0.03 µM,< 0.949 nM
same,IC50,second compound 0.0949 µM,< 0.949 nM
same,IC50,second compound 0.3 µM,< 0.949 nM
same,"viability, T/C","second compound 0.000949 µM, first compound 0.000949 µM",83.8%
same,"viability, T/C","second compound 0.000949 µM, first compound 0.003 µM",21.2%
same,"viability, T/C","second compound 0.000949 µM, first compound 0.00949 µM",9.03%
same,"viability, T/C","second compound 0.000949 µM, first compound 0.03 µM",7.89%
same,"viability, T/C","second compound 0.000949 µM, first compound 0.0949 µM",5.5%
same,"viability, T/C","second compound 0.000949 µM, first compound 0.3 µM",1.91%
same,"viability, T/C","second compound 0.003 µM, first compound 0.000949 µM",72.3%
same,"viability, T/C","second compound 0.003 µM, first compound 0.003 µM",18.9%
same,"viability, T/C","second compound 0.003 µM, first compound 0.00949 µM",13.3%
same,"viability, T/C","second compound 0.003 µM, first compound 0.03 µM",11.4%
same,"viability, T/C","second compound 0.003 µM, first compound 0.0949 µM",7.41%
same,"viability, T/C","second compound 0.003 µM, first compound 0.3 µM",4.35%
same,"viability, T/C","second compound 0.00949 µM, first compound 0.000949 µM",55.1%
same,"viability, T/C","second compound 0.00949 µM, first compound 0.003 µM",25.2%
same,"viability, T/C","second compound 0.00949 µM, first compound 0.00949 µM",17.4%
same,"viability, T/C","second compound 0.00949 µM, first compound 0.03 µM",13.7%
same,"viability, T/C","second compound 0.00949 µM, first compound 0.0949 µM",11.1%
same,"viability, T/C","second compound 0.00949 µM, first compound 0.3 µM",9.59%
same,"viability, T/C","second compound 0.03 µM, first compound 0.000949 µM",45.6%
same,"viability, T/C","second compound 0.03 µM, first compound 0.003 µM",32%
same,"viability, T/C","second compound 0.03 µM, first compound 0.00949 µM",21.1%
same,"viability, T/C","second compound 0.03 µM, first compound 0.03 µM",15.6%
same,"viability, T/C","second compound 0.03 µM, first compound 0.0949 µM",13.1%
same,"viability, T/C","second compound 0.03 µM, first compound 0.3 µM",13.2%
same,"viability, T/C","second compound 0.0949 µM, first compound 0.000949 µM",34.5%
same,"viability, T/C","second compound 0.0949 µM, first compound 0.003 µM",32.5%
same,"viability, T/C","second compound 0.0949 µM, first compound 0.00949 µM",19.7%
same,"viability, T/C","second compound 0.0949 µM, first compound 0.03 µM",14.7%
same,"viability, T/C","second compound 0.0949 µM, first compound 0.0949 µM",12.9%
same,"viability, T/C","second compound 0.0949 µM, first compound 0.3 µM",13.6%
same,"viability, T/C","second compound 0.3 µM, first compound 0.000949 µM",37.8%
same,"viability, T/C","second compound 0.3 µM, first compound 0.003 µM",25.2%
same,"viability, T/C","second compound 0.3 µM, first compound 0.00949 µM",18.5%
same,"viability, T/C","second compound 0.3 µM, first compound 0.03 µM",15.8%
same,"viability, T/C","second compound 0.3 µM, first compound 0.0949 µM",21.9%
same,"viability, T/C","second compound 0.3 µM, first compound 0.3 µM",15.8%
O=C(c1ccc(F)c(F)c1Nc1ccc(I)cc1F)N1CC(O)([C@@H]2CCCCN2)C1 + CCn1c(-c2cc(N3CCN(C)CC3)cnc2C(C)OC)c2c3cc(ccc31)-c1csc(n1)CC(NC(=O)C1CC1C)C(=O)N1CCCC(N1)C(=O)OCC(C)(C)C2,IC50,second compound 0.000949 µM,319 nM
same,IC50,second compound 0.003 µM,113 nM
same,IC50,second compound 0.00949 µM,56.7 nM
same,IC50,second compound 0.03 µM,< 3.16 nM
same,IC50,second compound 0.0949 µM,< 3.16 nM
same,IC50,second compound 0.3 µM,< 3.16 nM
same,"viability, T/C","second compound 0.000949 µM, first compound 0.00316 µM",119%
same,"viability, T/C","second compound 0.000949 µM, first compound 0.01 µM",113%
same,"viability, T/C","second compound 0.000949 µM, first compound 0.0316 µM",78.7%
same,"viability, T/C","second compound 0.000949 µM, first compound 0.1 µM",75.9%
same,"viability, T/C","second compound 0.000949 µM, first compound 0.316 µM",51.2%
same,"viability, T/C","second compound 0.000949 µM, first compound 1 µM",27%
same,"viability, T/C","second compound 0.003 µM, first compound 0.00316 µM",86.3%
same,"viability, T/C","second compound 0.003 µM, first compound 0.01 µM",73.3%
same,"viability, T/C","second compound 0.003 µM, first compound 0.0316 µM",56.9%
same,"viability, T/C","second compound 0.003 µM, first compound 0.1 µM",56.5%
same,"viability, T/C","second compound 0.003 µM, first compound 0.316 µM",39.3%
same,"viability, T/C","second compound 0.003 µM, first compound 1 µM",37.3%
same,"viability, T/C","second compound 0.00949 µM, first compound 0.00316 µM",65.5%
same,"viability, T/C","second compound 0.00949 µM, first compound 0.01 µM",52%
same,"viability, T/C","second compound 0.00949 µM, first compound 0.0316 µM",67.8%
same,"viability, T/C","second compound 0.00949 µM, first compound 0.1 µM",38.5%
same,"viability, T/C","second compound 0.00949 µM, first compound 0.316 µM",28.5%
same,"viability, T/C","second compound 0.00949 µM, first compound 1 µM",30.9%
same,"viability, T/C","second compound 0.03 µM, first compound 0.00316 µM",49.9%
same,"viability, T/C","second compound 0.03 µM, first compound 0.01 µM",45.9%
same,"viability, T/C","second compound 0.03 µM, first compound 0.0316 µM",33.1%
same,"viability, T/C","second compound 0.03 µM, first compound 0.1 µM",32.2%
same,"viability, T/C","second compound 0.03 µM, first compound 0.316 µM",29.2%
same,"viability, T/C","second compound 0.03 µM, first compound 1 µM",37.3%
same,"viability, T/C","second compound 0.0949 µM, first compound 0.00316 µM",36.7%
same,"viability, T/C","second compound 0.0949 µM, first compound 0.01 µM",35.3%
same,"viability, T/C","second compound 0.0949 µM, first compound 0.0316 µM",32.9%
same,"viability, T/C","second compound 0.0949 µM, first compound 0.1 µM",41.7%
same,"viability, T/C","second compound 0.0949 µM, first compound 0.316 µM",32.8%
same,"viability, T/C","second compound 0.0949 µM, first compound 1 µM",37.5%
same,"viability, T/C","second compound 0.3 µM, first compound 0.00316 µM",37%
same,"viability, T/C","second compound 0.3 µM, first compound 0.01 µM",39.1%
same,"viability, T/C","second compound 0.3 µM, first compound 0.0316 µM",37%
same,"viability, T/C","second compound 0.3 µM, first compound 0.1 µM",38.7%
same,"viability, T/C","second compound 0.3 µM, first compound 0.316 µM",32.9%
same,"viability, T/C","second compound 0.3 µM, first compound 1 µM",38.3%
